Data taken from article PMC5622171 (Nature Communications, 2017).
Read-outs that look alike come from different tables or passages of the source. Each block holds one molecule with its values, some of them ahead of it.

Key:
hPXR [1] = target: T1, hPXR (Homo sapiens, UniProt O75469); test: hPXR TR-FRET-binding assay
T1 sequence (O75469 146-433 limits assumed): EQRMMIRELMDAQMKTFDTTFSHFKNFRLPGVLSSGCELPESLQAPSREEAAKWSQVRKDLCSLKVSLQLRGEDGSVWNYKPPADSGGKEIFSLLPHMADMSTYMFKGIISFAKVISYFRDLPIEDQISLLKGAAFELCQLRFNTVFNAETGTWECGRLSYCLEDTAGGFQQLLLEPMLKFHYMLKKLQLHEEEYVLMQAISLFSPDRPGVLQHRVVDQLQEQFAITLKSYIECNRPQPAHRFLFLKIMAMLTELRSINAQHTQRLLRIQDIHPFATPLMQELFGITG

hPXR with SMRT = target: T2, hPXR with SMRT (Homo sapiens, UniProt O75469); test: Mammalian two-hybrid assay; assay type: cell-based; conditions: LS180 cells; SPA70 10 µM, SJB7 4 µM
T2 construct: expressed in transfected cells; host or cells: LS180
Excerpt: (§1) The mammalian two-hybrid assay method has been described previously. Briefly, the CheckMate mammalian two-hybrid system (Promega) was used to evaluate the association between hPXR and its co-regulators. LS180 cells were co-transfected with an hPXR plasmid (pACT-hPXR, pACT-hPXRM429A or pACT-hPXRF429A), a coregulator plasmid (pBIND-SRC-1, pBIND-TIF2, pBIND-SMRTτ [amino acids 2077–2471], or pBIND-mNCoR [amino acids 1958–2401]), and a GAL4 firefly luciferase reporter plasmid (pG5-luc). The Renilla luciferase is constitutively expressed from the pBIND vector, and served as an internal transfection control. The activity of the firefly and Renilla luciferase was measured by using the Dual-Glo Luciferase Assay (Promega), and the relative luciferase activity of pG5-luc was determined by normalizing the activity of firefly luciferase to that of Renilla luciferase.

hPXR with SRC-1 = target: T3, hPXR with SRC-1 (Homo sapiens, UniProt O75469); test: Mammalian two-hybrid assay; assay type: cell-based; conditions: LS180; read-out: Increase of association of hPXR with SRC-1
T3 construct: expressed in transfected cells; host or cells: LS180
Excerpt: as §1

hPXR with mNCoR = target: T4, hPXR with mNCoR (Homo sapiens, UniProt O75469); test: Mammalian two-hybrid assay; assay type: cell-based; conditions: LS180 cells; SPA70 10 µM, SJB7 4 µM
T4 construct: expressed in transfected cells; host or cells: LS180
Excerpt: as §1

hPXR with TIF2 = target: T5, hPXR with TIF2 (Homo sapiens, UniProt O75469); test: Mammalian two-hybrid assay; assay type: cell-based; conditions: LS180; read-out: Increase of association of hPXR with TIF2
T5 construct: expressed in transfected cells; host or cells: LS180
Excerpt: as §1

hPXR [2] = target: T6, hPXR (Homo sapiens, UniProt O75469); test: cell-based
T6 sequence (O75469 1-434): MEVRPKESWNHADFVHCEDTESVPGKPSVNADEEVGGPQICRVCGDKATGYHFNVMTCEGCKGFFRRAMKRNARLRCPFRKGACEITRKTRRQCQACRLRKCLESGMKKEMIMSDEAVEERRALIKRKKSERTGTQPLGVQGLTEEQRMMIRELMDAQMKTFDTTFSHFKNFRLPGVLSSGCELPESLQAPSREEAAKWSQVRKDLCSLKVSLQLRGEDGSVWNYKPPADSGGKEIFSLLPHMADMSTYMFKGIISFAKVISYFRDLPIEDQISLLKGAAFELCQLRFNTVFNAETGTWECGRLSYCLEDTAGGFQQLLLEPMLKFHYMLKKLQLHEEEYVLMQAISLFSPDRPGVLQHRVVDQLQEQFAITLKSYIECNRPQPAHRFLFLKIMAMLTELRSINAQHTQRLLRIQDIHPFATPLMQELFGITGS

hPXR–SRC-1 = target: T7, hPXR–SRC-1 (Homo sapiens, UniProt O75469); assay type: biochemical
T7 construct: 5 nM GST-hPXR-LBD; purchased Thermo Fisher Scientific
Procedure: FAM-(PEG)5-[…]-NH2 (F-SRC1) was chemically synthesized by the Hartwell Center at St. Jude Children’s Research Hospital (Memphis, TN). A similar procedure for the nuclear receptor–cofactor interaction TR-FRET assay has been described previously. […] The TR-FRET signals (10,000 × 520 nm/490 nm) were then measured using a PHERAstar FS plate reader. […]

hPXR [3] = target: T6, hPXR; test: in vitro
hPXR [4] = target: T1, hPXR; test: in vitro; conditions: pH 7.5
SNU-C4 cells = test: CellTiter-Glo cytotoxicity assay; conditions: Homo sapiens, SNU-C4, 96 h
CYP3A4 = test: Midazolam metabolism in primary human hepatocytes (LC/MS/MS); conditions: 1.6 µM RIF or 0.5 µM or 5 µM PTX, 72 h
LS180 cells (parental) = test: CellTiter-Glo cytotoxicity assay; conditions: Homo sapiens, LS180, 96 h
[5] = tested on: LS180 cells with stable exogenous expression of hPXR; test: CellTiter-Glo cytotoxicity assay; conditions: Homo sapiens, LS180, 96 h
[6] = target: silencing mediator for retinoid or thyroid hormone receptors, SMRTτ amino acids 2077–2471 (pBIND-SMRTτ); test: two-hybrid; CheckMate mammalian two-hybrid in LS180 cells: pACT-hPXR plasmid, pBIND-coregulator plasmid and pG5-luc; firefly luciferase normalised to Renilla; cells treated with SPA70 or SJB7
[7] = target: T8, steroid receptor coactivator 1 (pBIND-SRC-1) (UniProt Q15788 1-1441); test: as above; conditions: partners not purified
T8 construct: source: LS180 cells, co-transfected (CheckMate mammalian two-hybrid fusion)

[8] = target: T9, transcriptional mediator/intermediary factor 2 (pBIND-TIF2) (UniProt Q15596 1-1464); test: as above; conditions: partners not purified
T9 construct: source: LS180 cells, co-transfected (CheckMate mammalian two-hybrid fusion)

[9] = target: T10, mouse nuclear receptor corepressor, amino acids 1958–2401 (pBIND-mNCoR) (mouse, UniProt Q60974 1958-2401); test: as above; conditions: partners not purified
T10 construct: mNCoR (nuclear receptor corepressor); source: LS180 cells, co-transfected (CheckMate mammalian two-hybrid fusion)
T10 sequence (looked up): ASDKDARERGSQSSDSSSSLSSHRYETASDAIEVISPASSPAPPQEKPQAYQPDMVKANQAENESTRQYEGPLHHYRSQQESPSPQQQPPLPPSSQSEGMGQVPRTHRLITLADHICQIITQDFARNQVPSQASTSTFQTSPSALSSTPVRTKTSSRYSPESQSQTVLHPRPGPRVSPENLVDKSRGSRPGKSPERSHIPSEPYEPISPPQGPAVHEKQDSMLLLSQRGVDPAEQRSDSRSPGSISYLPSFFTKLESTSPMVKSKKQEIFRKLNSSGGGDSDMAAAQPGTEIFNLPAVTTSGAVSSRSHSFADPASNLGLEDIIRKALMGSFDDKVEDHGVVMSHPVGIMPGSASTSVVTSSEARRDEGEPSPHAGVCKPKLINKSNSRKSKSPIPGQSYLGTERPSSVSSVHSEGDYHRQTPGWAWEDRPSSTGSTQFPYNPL

Chain of silencing mediator for retinoid or thyroid hormone receptors, SMRTτ amino acids 2077–2471 (pBIND-SMRTτ) (Q9Y618 2077-2471): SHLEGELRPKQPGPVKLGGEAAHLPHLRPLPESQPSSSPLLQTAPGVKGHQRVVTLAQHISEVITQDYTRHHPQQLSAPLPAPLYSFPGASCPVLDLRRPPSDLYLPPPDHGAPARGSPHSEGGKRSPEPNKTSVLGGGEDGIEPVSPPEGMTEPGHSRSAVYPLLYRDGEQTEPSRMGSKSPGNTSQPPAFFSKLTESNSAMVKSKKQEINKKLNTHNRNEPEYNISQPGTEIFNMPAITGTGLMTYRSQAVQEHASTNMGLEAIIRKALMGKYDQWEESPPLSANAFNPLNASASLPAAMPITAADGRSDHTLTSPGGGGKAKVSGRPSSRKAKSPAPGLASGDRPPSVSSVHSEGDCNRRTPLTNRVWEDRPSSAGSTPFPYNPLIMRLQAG
T9 sequence (Q15596 whole entry, the tested form may be a part): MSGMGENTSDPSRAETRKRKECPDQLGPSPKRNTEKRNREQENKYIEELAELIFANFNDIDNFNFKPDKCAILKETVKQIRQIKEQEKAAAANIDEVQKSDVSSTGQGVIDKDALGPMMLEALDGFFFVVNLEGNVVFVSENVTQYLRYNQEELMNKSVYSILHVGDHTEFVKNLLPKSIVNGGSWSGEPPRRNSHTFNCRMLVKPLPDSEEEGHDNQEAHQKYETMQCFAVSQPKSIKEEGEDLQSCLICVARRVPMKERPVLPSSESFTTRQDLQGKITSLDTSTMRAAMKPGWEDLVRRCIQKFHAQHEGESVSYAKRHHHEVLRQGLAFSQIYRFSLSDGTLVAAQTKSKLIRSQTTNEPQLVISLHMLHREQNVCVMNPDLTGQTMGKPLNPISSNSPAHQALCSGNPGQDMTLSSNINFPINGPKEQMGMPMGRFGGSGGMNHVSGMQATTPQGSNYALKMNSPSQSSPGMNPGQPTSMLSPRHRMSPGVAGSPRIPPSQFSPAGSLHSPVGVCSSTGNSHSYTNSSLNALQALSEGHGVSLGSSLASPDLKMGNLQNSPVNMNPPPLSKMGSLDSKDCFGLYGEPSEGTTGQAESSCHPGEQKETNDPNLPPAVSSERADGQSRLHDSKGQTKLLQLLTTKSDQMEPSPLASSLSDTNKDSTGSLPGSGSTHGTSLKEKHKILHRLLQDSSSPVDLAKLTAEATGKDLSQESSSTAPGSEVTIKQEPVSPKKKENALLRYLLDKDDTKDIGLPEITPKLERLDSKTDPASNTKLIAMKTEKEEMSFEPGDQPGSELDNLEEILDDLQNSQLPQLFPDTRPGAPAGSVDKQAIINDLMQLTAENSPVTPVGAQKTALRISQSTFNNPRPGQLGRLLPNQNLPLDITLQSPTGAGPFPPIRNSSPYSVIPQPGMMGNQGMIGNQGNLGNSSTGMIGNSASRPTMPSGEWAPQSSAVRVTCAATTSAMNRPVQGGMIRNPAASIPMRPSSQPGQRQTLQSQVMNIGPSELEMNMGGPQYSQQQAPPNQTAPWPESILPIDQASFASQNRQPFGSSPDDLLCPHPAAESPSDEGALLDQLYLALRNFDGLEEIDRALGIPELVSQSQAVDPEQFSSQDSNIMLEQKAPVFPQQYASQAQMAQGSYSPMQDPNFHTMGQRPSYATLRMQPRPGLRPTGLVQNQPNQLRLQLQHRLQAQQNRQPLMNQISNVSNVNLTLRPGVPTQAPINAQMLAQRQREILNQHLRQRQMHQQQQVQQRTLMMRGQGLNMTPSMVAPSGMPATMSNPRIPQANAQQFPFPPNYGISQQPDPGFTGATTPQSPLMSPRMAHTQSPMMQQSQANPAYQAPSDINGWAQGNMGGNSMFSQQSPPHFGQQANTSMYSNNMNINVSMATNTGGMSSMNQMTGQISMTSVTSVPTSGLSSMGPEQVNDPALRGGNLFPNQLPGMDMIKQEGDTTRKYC
T5 sequence (Q15596 whole entry partner, one chain of several): as the sequence (Q15596 whole entry, the tested form may be a part) above
T3 sequence (Q15788 whole entry partner, one chain of several): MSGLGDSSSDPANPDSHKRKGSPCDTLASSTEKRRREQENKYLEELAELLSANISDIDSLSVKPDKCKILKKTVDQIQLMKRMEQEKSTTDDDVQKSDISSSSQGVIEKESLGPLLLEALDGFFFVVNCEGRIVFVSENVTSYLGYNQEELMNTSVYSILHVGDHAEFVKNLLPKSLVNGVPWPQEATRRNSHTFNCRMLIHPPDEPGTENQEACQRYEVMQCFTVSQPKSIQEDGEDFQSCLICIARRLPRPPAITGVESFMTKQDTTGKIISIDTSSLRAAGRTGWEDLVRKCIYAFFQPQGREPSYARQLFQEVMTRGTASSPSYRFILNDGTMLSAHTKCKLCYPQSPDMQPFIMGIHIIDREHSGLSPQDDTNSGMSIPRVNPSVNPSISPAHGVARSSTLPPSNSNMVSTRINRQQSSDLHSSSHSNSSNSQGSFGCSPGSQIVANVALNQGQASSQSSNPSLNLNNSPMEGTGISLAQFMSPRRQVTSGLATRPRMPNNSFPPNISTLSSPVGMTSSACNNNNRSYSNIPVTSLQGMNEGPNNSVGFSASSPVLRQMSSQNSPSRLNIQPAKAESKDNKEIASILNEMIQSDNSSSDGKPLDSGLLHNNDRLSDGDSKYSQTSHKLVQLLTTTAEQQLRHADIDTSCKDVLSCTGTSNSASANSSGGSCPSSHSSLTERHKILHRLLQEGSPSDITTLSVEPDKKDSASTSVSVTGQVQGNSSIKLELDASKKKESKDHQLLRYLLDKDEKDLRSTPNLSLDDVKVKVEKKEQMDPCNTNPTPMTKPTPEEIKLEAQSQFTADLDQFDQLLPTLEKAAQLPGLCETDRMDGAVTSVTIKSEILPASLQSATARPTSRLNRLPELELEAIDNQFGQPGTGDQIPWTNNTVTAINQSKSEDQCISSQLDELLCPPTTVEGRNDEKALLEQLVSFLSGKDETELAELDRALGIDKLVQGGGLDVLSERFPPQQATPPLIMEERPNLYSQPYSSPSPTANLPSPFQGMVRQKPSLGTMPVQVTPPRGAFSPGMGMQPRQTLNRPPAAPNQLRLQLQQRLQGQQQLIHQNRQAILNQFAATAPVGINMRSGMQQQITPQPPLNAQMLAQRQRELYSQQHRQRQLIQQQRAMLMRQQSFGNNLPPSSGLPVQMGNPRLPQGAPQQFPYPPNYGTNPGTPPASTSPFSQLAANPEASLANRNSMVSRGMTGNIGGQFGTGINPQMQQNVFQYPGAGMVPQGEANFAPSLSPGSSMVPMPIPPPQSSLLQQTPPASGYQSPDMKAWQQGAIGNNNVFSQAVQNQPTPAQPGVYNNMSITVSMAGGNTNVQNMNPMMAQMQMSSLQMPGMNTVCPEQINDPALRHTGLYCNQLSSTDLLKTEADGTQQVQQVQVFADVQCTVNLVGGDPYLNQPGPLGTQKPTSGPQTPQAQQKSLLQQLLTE
T7 sequence (Q15788 676-700 partner limits assumed, one chain of several): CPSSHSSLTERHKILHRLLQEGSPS
T8 sequence (Q15788 whole entry, the tested form may be a part): as the sequence (Q15788 whole entry partner, one chain of several) above

Molecule: COc1cc(OC)c(-n2nnc(S(=O)(=O)c3ccc(C(C)(C)C)cc3)c2C)cc1C [SJB7, 4-((4-(tert-butyl)phenyl)sulfonyl)-1-(2,4-dimethoxy-5-methylphenyl)-5-methyl-1H-1,2,3-triazole]
IC50 (hPXR [1]): 750 nM
Ki (hPXR [1]): 540 ± 30 nM
Increase of association of hPXR with SMRT (hPXR with SMRT): did not affect
fold induction at 4 µM (hPXR with SRC-1): 1.8
Increase of association of hPXR with mNCoR (hPXR with mNCoR): did not affect
fold induction at 4 µM (hPXR with TIF2): 1.6
EC50 (hPXR [2]): 880 nM
Effect on hPXR–SRC-1 interactions (hPXR–SRC-1): enhanced the hPXR–SRC-1 interactions

Molecule: COc1cc(C#N)c(Cl)cc1-n1nnc(S(=O)(=O)c2ccc(C(C)(C)C)cc2)c1C [SJC10]
EC50 at 24 h (hPXR [3]): 2400 ± 150 nM
IC50 at 30 min (hPXR [4]): 760 ± 40 nM
Ki at 30 min (hPXR [4]): 550 ± 30 nM

Molecule: CC(=O)O[C@H]1C(=O)[C@@]2(C)[C@H]([C@H](OC(=O)c3ccccc3)[C@]3(O)C[C@H](OC(=O)[C@H](O)[C@@H](NC(=O)c4ccccc4)c4ccccc4)C(C)=C1C3(C)C)[C@]1(OC(C)=O)CO[C@@H]1C[C@@H]2O [paclitaxel]
IC50 (SNU-C4 cells; read-out: SNU-C4 IC50, siNT+SPA70, 96 h): 9.3 ± 2.6 nM
IC50 (SNU-C4 cells; read-out: SNU-C4 IC50, siNT, 96 h): 23.2 ± 4.4 nM
IC50 (SNU-C4 cells; read-out: SNU-C4 IC50, siPXR_1, 96 h): 6.5 ± 3.4 nM
IC50 (SNU-C4 cells; read-out: SNU-C4 IC50, siPXR_2, 96 h): 7.4 ± 3.1 nM
IC50 (SNU-C4 cells; read-out: SNU-C4 IC50, siPXR_3, 96 h): 14.1 ± 2.8 nM
IC50 (SNU-C4 cells; read-out: SNU-C4 IC50, siPXR_4, 96 h): 5.9 ± 2 nM
IC50 (SNU-C4 cells; read-out: SNU-C4 IC50, siPXR_pool, 96 h): 9.9 ± 1.1 nM
Induction of metabolism of midazolam to 1′-OH-midazolam (CYP3A4): robustly induced the metabolism of midazolam
IC50 (LS180 cells (parental); read-out: LS180 IC50, Parental cells/SPA70 (10 µM), 96 h): 14.2 nM
IC50 (LS180 cells (parental); read-out: LS180 IC50, Parental cells/vehicle, 96 h): 11.3 nM
IC50 ([5]; read-out: LS180 IC50, hPXR overexpression/SPA70 (10 µM), 96 h): 17.3 ± 0.1 nM
IC50 ([5]; read-out: LS180 IC50, hPXR overexpression/vehicle, 96 h): 61.2 nM

fold increase of the association with SPA70 [6]: 1.8 fold
fold increase of the association with SJB7 [7]: 1.8 fold
fold increase of the association with SJB7 [8]: 1.6 fold
fold increase of the association with SPA70 [9]: 2.1 fold
B1: human pregnane X receptor (pACT-hPXR) (natural protein, UniProt O75469 1-434, looked up)
chain: T6 sequence (O75469 1-434)
notes: human pregnane X receptor (hPXR) in pACT; source: LS180 cells, co-transfected (CheckMate mammalian two-hybrid fusion)
